Test results published in US6127131A (Synaptic Pharmaceutical Corporation, priority 1998, dated 2000).

Assays:
[1] = target: T1, glycine transporter encoded by rB20a (Rattus norvegicus, UniProt P28572); assay: Competition for [3H]glycine uptake by COS-7 cells transfected with rB20a; assay type: cell-based; details: agents at 1 mM (Table 1)
T1 construct: expressed in transfected cells; host or cells: COS-7 cells, transient transfection with pSVL-rB20a
T1 sequence (P28572 1-638): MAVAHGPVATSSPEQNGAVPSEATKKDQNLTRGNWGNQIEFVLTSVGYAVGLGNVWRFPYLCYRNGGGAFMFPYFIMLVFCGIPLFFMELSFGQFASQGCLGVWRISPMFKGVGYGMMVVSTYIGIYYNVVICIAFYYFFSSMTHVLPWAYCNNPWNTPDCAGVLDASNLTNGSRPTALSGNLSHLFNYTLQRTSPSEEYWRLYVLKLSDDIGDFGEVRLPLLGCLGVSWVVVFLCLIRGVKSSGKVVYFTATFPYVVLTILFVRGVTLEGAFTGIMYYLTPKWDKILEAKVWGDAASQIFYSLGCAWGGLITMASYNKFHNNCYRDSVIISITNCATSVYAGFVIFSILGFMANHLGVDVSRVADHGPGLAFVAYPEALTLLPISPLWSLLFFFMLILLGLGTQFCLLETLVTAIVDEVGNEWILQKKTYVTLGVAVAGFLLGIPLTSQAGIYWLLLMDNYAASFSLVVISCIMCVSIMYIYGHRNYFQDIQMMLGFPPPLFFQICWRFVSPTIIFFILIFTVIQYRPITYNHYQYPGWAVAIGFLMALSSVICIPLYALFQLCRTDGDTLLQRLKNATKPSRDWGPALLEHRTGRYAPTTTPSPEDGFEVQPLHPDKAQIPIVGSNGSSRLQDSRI
Procedure: These two clones were constructed into a full-length clone (designated rB20a) by ligation at their internal Nco I sites and then cloned into the eukaryotic expression vector pSVL (Pharmacia LKB Biotechnology, Piscataway, N.J.). Transient transfection of COS cells was carried out using DEAE-dextran with DMSO according to the method of Lopata et al. (1984) with minor modifications. COS cells were grown in six-well plates (37° C.,5%CO2) in high glucose Dulbecco's modified Eagle medium supplemented with 10% bovine calf serum, 100 U/ml penicillin G, and 100 μg/ml streptomycin sulfate. Cells were routinely used two days after transfection for transport studies.
(§1) Plates were incubated at 37° C. for 10 or 20 minutes, then washed rapidly 3× with HBS. Cells were solubilized with 0.05% sodium deoxycholate/0.1N NaOH (1 ml/well), 0.5 ml aliquots were removed, neutralized with 1N HCl, and radioactivity was determined by scintillation counting. Protein was quantified in an aliquot of the solubilized cells with the Bradford Reagent (Biorad, Richmond, Calif.), according to the manufacturer's directions.
Nonspecific uptake was determined with 1 mM

[2] = target: T2, transporter encoded by rB20a (Rattus norvegicus, UniProt P28572); assay: Screen of COS cells transfected with rB20a for transport of radiolabeled neurotransmitters and amino acids; assay type: cell-based; details: data not shown
T2 sequence (P28572 1-638): T1 sequence (P28572 1-638)
Procedure: as §1

| Compound | competition for [3H]glycine uptake (in words) [1] | effect of rB20a expression on uptake of the radiolabeled substrate [2] |
| --- | --- | --- |
| N[C@@H](CO)C(=O)O [L-serine] | Neither α-(methylamino) isobutyric acid (1 mM), a substrate for system A, nor L-serine (1 mM), a substrate for system ASC, significantly competed | – |
| CNC(C)(C)C(=O)O [α-(methylamino) Isobutyric acid] | Neither α-(methylamino) isobutyric acid (1 mM), a substrate for system A, nor L-serine (1 mM), a substrate for system ASC, significantly competed | – |
| [^3 H]glutamate | – | did not significantly alter |
